Test results taken from publication PMC4496781, “Functional Roles of Aromatic Residues and Helices of Papiliocin in its Antimicrobial and Anti-inflammatory Activities” (Scientific Reports, 2015).
Read-outs that look alike come from different tables or passages of the source. Ends that are not written are not given here.

Tests used:
Bacillus subtilis = conditions: 16 h
Experimental: (§1) MICs of the peptides against six standard bacteria and four multidrug-resistant bacteria were determined by a broth microdilution assay as described previously. […] Cytotoxicities against mammalian cells were measured against human RBCs, mouse macrophage-derived RAW264.7 cells, and fibroblast NIH-3T3 cells. The anti-inflammatory activities of the peptides were examined by inhibiting nitrite production in LPS-stimulated RAW264.7 cells.

Eenterococcus faecalis = conditions: E, 16 h
Experimental: as §1

Escherichia coli = conditions: 16 h
Experimental: as §1

Pseudomonas aeruginosa = conditions: 16 h
Experimental: as §1

Salmonella typhimurium = conditions: murium, 16 h
Experimental: as §1

Staphylococcus aureus = conditions: 16 h
Experimental: as §1

MDRAB 12035(R) = conditions: broth microdilution, 16 h; unit not given
Experimental: (§2) We examined the antimicrobial activities of the peptides against multidrug-resistant bacterial strains, including four gram-negative species (S. typhimurium 8009(R), E. coli 1229(R), P. aeruginosa 2095(R), and A. baumannii 12035(R); Table 3).
as §1

MDREC 1229(R) = conditions: 16 h
Experimental: as §2, §1

MDRPA 2095(R) = conditions: 16 h
Experimental: as §2, §1

MDRST 8009(R) = conditions: broth microdilution, 16 h; unit not given
Experimental: as §2, §1

[1] = test system: gram-negative bacteria (E. coli, S. typhimurium, P. aeruginosa); conditions: for GM of the MIC values, gram-negative: 16 h; for Therapeutic Index (MHC/GM), gram-negative: ratio MHC (μM) over GM of MIC (μM)
Experimental: (§3) This property is assessed by the therapeutic index which can be defined as a ratio of the […] against human hRBCs to the MIC against bacterial cells.
as §1

[2] = test system: gram-positive bacteria (B. subtilis, E. faecalis, S. aureus); conditions: for GM of the MIC values, gram-positive: 16 h; for Therapeutic Index (MHC/GM), gram-positive: ratio MHC (μM) over GM of MIC (μM)
Experimental: as §3, §1

[3] = test system: RAW264.7 macrophage cells; experiment: Cytotoxicity, MTT; type: cell-based, mouse
Experimental: We examined the cytotoxicity against human erythrocytes. […] Next, we examined the cytotoxicity of the peptides against RAW264.7 macrophage cells. We assessed the effects of the peptides on cell growth by measuring mitochondrial reduction of MTT to a colored product in live cells. […] On the other hand, PapC produced high cytotoxicity against RAW264.7 cells, even at low concentrations. […] In case of PapN-2A, Pap-5A, and Pap-2A5A, the cell survival rates at a peptide concentration of 100 μM were approximately 90% or more. Thus, Trp^2 and Phe^5 are important for the cytotoxic activity of papiliocin toward RAW264.7 cells.
as §1

Substance	MIC, Bacillus subtilis (Bacillus subtilis)	MIC, Eenterococcus faecalis (Eenterococcus faecalis)	MIC, Escherichia coli (Escherichia coli)	MIC, Pseudomonas aeruginosa (Pseudomonas aeruginosa)	MIC, Salmonella typhimurium (Salmonella typhimurium)	MIC, Staphylococcus aureus (Staphylococcus aureus)	MIC, MDRAB 12035(R) (MDRAB 12035(R))	MIC, MDREC 1229(R) (MDREC 1229(R))	MIC, MDRPA 2095(R) (MDRPA 2095(R))	MIC, MDRST 8009(R) (MDRST 8009(R))	GM of the MIC values, gram-negative [1]	Therapeutic Index (MHC/GM), gram-negative [1]	GM of the MIC values, gram-positive [2]	Therapeutic Index (MHC/GM), gram-positive [2]	Therapeutic Index (MHC/GM), gram-positive ([2]; listed as papiliocin)	cytotoxicity at the peptide's MIC [3]
RWKIAKKIEKVGRNVRDGIIKA-NH2 [PapN-5A]	16.0 µM	128 µM	1.00 µM	2.00 µM	2.00 µM	16.0 µM	8.00 µM	2.00 µM	8.00 µM	4.00 µM	1.67 µM	120	53.3 µM	3.75	–	–
RAKIAKKIEKVGRNVRDGIIKA-NH2 [PapN-2A5A]	>128 µM	>128 µM	2.00 µM	8.00 µM	4.00 µM	128 µM	32.0 µM	4.00 µM	16.0 µM	8.00 µM	4.67 µM	42.9	213 µM	0.939	–	–
RWKIFKKIEKVGRNVRDGIIKAGPAVAVVGQAATVVK-NH2 [Papiliocin]	16.0 µM	64.0 µM	0.250 µM	0.500 µM	0.500 µM	32.0 µM	0.500 µM	0.500 µM	1.00 µM	0.500 µM	0.417 µM	–	37.3 µM	5.36	12.0	not toxic at their MICs
RAKIFKKIEKVGRNVRDGIIKAGPAVAVVGQAATVVK-NH2 [Papiliocin-2A]	64.0 µM	128 µM	0.250 µM	0.500 µM	0.500 µM	128 µM	0.500 µM	1.00 µM	1.00 µM	1.00 µM	0.417 µM	–	107 µM	1.87	–	–
RFKIWKKIEKVGRNVRDGIIKA-NH2 [PapN-2F5W]	8.00 µM	64.0 µM	1.00 µM	2.00 µM	2.00 µM	16.0 µM	4.00 µM	2.00 µM	2.00 µM	2.00 µM	1.67 µM	120	29.3 µM	–	–	–
